Converted amounts (≈) assume the structure as drawn. Where two headings read alike, the source gives them in different places.
Tests used:
[1] = test system: cypris larvae of the barnacle Amphibalanus amphitrite; conditions: cited from earlier work
[2] = Antifouling assay: settlement and mortality of barnacle cyprids after 48 h; type: in vivo; conditions: cypris larvae, 48 h incubation, read-out: LC50 (toxicity)
Description: (§1) Adult barnacles (Amphibalanus amphitrite) procured from oyster farms at Lake Hamana and a pier at Shimizu bay, Shizuoka, were kept in an aquarium at 20 °C and fed on Artemia salina nauplii. Broods were released as I–II stage nauplii upon immersion in seawater after drying overnight. The nauplii thus obtained were cultured in filtered natural seawater (salinity 28) containing penicillin G (20 μg/mL) and streptomycin sulfate (30 μg/mL) and were fed on the diatom Chaetoceros gracilis at concentrations of 40 × 10^4 cells/mL. […] The cyprids were collected and stored at 4 °C until use (0 days old).
(§2) The test compounds were dissolved in ethanol and aliquots of the solution were transferred to wells of a 24-well polystyrene culture plate and air-dried. Four wells were used for each concentration. To each well, filtered seawater (2.0 mL, salinity 28) and six 2-day-old cyprids were added. The plates were kept in the dark at 25 °C for 48 h. […] Three or four trials were done for each concentration. Probit analysis was used to calculate the EC50 values.

[3] = test system: cypris larvae of the barnacle Amphibalanus amphitrite; assay: as above; type: in vivo; conditions: for EC50: Amphibalanus amphitrite, 48 h, read-out: EC50 (antifouling activity), cypris larvae, 48 h incubation, probit analysis; for toxicity / mortality of cypris larvae: at a concentration of 10 μg/mL
Description: as §1, §2

[4] = synthetic sample of 1 and its synthetic intermediates
[5] = Amphibalanus amphitrite (barnacle, in vivo, other: immersion in seawater holding the compound)

SMILES: [C-]#[N+][C@@]1(C)CC[C@H](C(C)C)[C@H]2C=C(C)CC[C@@H]21 [Compound 1, 10-isocyano-4-cadinene]
- EC50 (antifouling activity) ([1]; natural compound obtained from nudibranchs): 0.14 µg/mL (≈ 0.605 µM)
- LC50 (50% lethal concentration) ([1]; natural compound): > 10 µg/mL
- EC50 (antifouling activity) [1, 4]: 0.06 µg/mL (≈ 0.259 µM)
- LC50 [1, 4]: > 10 µg/mL

SMILES: CC1=C[C@H]2[C@H](CC1)[C@@H](O)CC[C@@H]2C(C)C [Compound 2]
- EC50 (antifouling activity) [1, 4]: 0.31 µg/mL (≈ 1.49 µM)
- LC50 [1, 4]: > 10 µg/mL

SMILES: [C-]#[N+][C@]1(C)CC[C@@H](/C(C)=C/C=C/C(C)C)CC1 [Compound 4, 3-isocyanotheonellin]
- EC50 (antifouling activity) ([1]; previously reported): 0.19 µg/mL (≈ 0.821 µM)
- LC50 ([1]; previously reported): > 10 µg/mL

SMILES: [C-]#[N+][C@H]1[C@H](OC(C)=O)O[C@H](COC(C)=O)[C@@H](OC(C)=O)[C@@H]1OC(C)=O [Compound 6a]
- LC50 at 48 h [2, 5]: > 10 µg/mL
- EC50 [3]: > 5 µg/mL
- toxicity / mortality of cypris larvae [3]: lethal larva was not observed

SMILES: [C-]#[N+][C@H]1[C@H](OC(=O)CCCCCCCCCCCCCCC)O[C@H](COC(=O)CCCCCCCCCCCCCCC)[C@@H](OC(=O)CCCCCCCCCCCCCCC)[C@@H]1OC(=O)CCCCCCCCCCCCCCC [Compound 6b]
- LC50 at 48 h [2, 5]: > 10 µg/mL
- EC50 [3]: > 5 µg/mL
- toxicity / mortality of cypris larvae [3]: lethal larva was not observed

SMILES: [C-]#[N+][C@H]1[C@H](Oc2ccccc2)O[C@H](COC(C)=O)[C@@H](OC(C)=O)[C@@H]1OC(C)=O [Compound 6c]
- LC50 at 48 h [2, 5]: > 10 µg/mL
- EC50 [3]: 0.71 µg/mL (≈ 1.81 µM)

SMILES: [C-]#[N+][C@H]1[C@H](OCc2ccccc2)O[C@H](COC(C)=O)[C@@H](OC(C)=O)[C@@H]1OC(C)=O [Compound 6d]
- LC50 at 48 h [2, 5]: > 10 µg/mL
- EC50 [3]: 0.7 µg/mL (≈ 1.73 µM)

SMILES: [C-]#[N+][C@H]1[C@H](OCC=C)O[C@H](COC(C)=O)[C@@H](OC(C)=O)[C@@H]1OC(C)=O [Compound 6e]
- LC50 at 48 h [2, 5]: > 10 µg/mL
- EC50 [3]: 0.37 µg/mL (≈ 1.04 µM)

SMILES: [C-]#[N+][C@H]1[C@H](OC(C)C)O[C@H](COC(C)=O)[C@@H](OC(C)=O)[C@@H]1OC(C)=O [Compound 6f]
- LC50 at 48 h [2, 5]: > 10 µg/mL
- EC50 [3]: 0.23 µg/mL (≈ 0.644 µM)

SMILES: [C-]#[N+][C@H]1[C@H](OCC(F)(F)F)O[C@H](COC(C)=O)[C@@H](OC(C)=O)[C@@H]1OC(C)=O [Compound 6g]
- LC50 at 48 h [2, 5]: > 10 µg/mL
- EC50 [3]: 0.36 µg/mL (≈ 0.906 µM)

SMILES: [C-]#[N+][C@H]1[C@H](OC(C)C)O[C@H](COC(=O)CCCCCCC)[C@@H](OC(=O)CCCCCCC)[C@@H]1OC(=O)CCCCCCC [Compound 6h]
- LC50 at 48 h [2, 5]: > 10 µg/mL
- EC50 [3]: 0.79 µg/mL (≈ 1.3 µM)

SMILES: [C-]#[N+][C@H]1[C@H](OC(C)C)O[C@H](COC(=O)CCCCCCCCCCCCCCC)[C@@H](OC(=O)CCCCCCCCCCCCCCC)[C@@H]1OC(=O)CCCCCCCCCCCCCCC [Compound 6i]
- LC50 at 48 h [2, 5]: > 10 µg/mL
- EC50 [3]: 0.31 µg/mL (≈ 0.328 µM)

SMILES: [C-]#[N+][C@H]1[C@H](OC(C)C)O[C@H](COC(=O)c2ccccc2)[C@@H](OC(=O)c2ccccc2)[C@@H]1OC(=O)c1ccccc1 [Compound 6j]
- LC50 at 48 h [2, 5]: > 10 µg/mL
- EC50 [3]: 0.81 µg/mL (≈ 1.49 µM)

SMILES: [C-]#[N+][C@H]1[C@H](OC(C)C)O[C@H](CO[Si](C)(C)C(C)(C)C)[C@@H](O[Si](C)(C)C(C)(C)C)[C@@H]1O[Si](C)(C)C(C)(C)C [Compound 6k]
- LC50 at 48 h ([2]; Amphibalanus amphitrite (barnacle, in vivo)): > 10 µg/mL
- EC50 [3]: 0.25 µg/mL (≈ 0.436 µM)

SMILES: O=S(=O)([O-])[O-].[Cu+2] [CuSO4]
- EC50 (antifouling activity) ([1]; CuSO4 used as a fouling inhibitor): 0.27 µg/mL

Reference: publication PMC5532645, “Design, Synthesis, and Antifouling Activity of Glucosamine-Based Isocyanides” (Marine Drugs, 2017)
